Reference: PubChem BioAssay AID2060500 (Molecular Pharmacology Branch, DTP, NCI, 2025)

Tested on: 596521-263-R-J1-PDC complex spheroids, viability % of control
Experiment: Anticancer human tumor 596521-263-R-J1-PDC patient-derived soft tissue sarcoma cell line growth inhibition [GQUAD]
Details: for IC50: curve of first compound; for viability, T/C: stronger effect = lower value
Description: DNA G-quadruplex Stabilizer Agents in Combinations in Complex Spheroids
A high-throughput screen of multi-cell type tumor spheroids was designed to identify active combinations of DNA G-quadruplex stabilizer agents and targeted small molecules. Complex spheroids include a stromal component modeled by human endothelial cells (HUVEC) and fibroblasts modeled by human mesenchymal stem cells (MSCs). The concentration ranges selected for each drug and investigational agent were based upon clinically achievable concentrations if the clinical Cmax of the agent was known.
Compounds. The drugs and investigational agents: pidnarulex (CX-5461; NSC782164), APTO-253 (NSC789042), BRACO-19 (NSC847499), peposertib (NSC802822), ceralasertib (NSC780249), elimusertib (NSC800525), camonsertib (NSC841442), AZD-1390 (NSC803789), olaparib (NSC753686), talazoparib (NSC767125), ART-558 (NSC835418), sotorasib (NSC818433), MRTX-1133 (NSC836407), SN-38 (NSC673596), topotecan (NSC609699), etoposide (NSC141540), doxorubicin (NSC123127), gemcitabine (NSC613327), 5-fluorouracil (NSC19893), paclitaxel (NSC125973), vemurafenib (NSC761431), panobinostat (NSC761190), R-306465 (JNJ-16241199; NSC773264), adavosertib (NSC754352), TP-3654 (NSC805149), carboplatin (NSC241240), KSQ-4279 (NSC840948), and staurosporine (NSC755774) were obtained from the National Cancer Institute (NCI) Developmental Therapeutics Program Chemical Repository (34). The FDA-approved anticancer drug set is available from the NCI Developmental Therapeutics Program. […] The stock solutions were prepared in dimethyl sulfoxide (DMSO, Sigma-Aldrich, St. Louis, MO, cat. D2650) at 800-fold the tested concentration and stored at -70 degrees C prior to their use. All drugs and investigational agents were tested over a range starting from a high concentration at or near the clinical Cmax and decreasing in half-log increments. If the clinical Cmax for an agent had not been determined, the highest concentration tested was 10 microM.
2.3 Cell Culture. All cells were maintained in an incubator at 37 degrees C and 5% CO2 with 95% humidity. The PDC lines were cultured according to standard operating procedures established by the NCI PDMR. All PDCs were thawed and cultured in Matrigel-coated flasks prepared with a working solution of 1X Ham's F-12 nutrient mix, without supplementation (Invitrogen, cat. 11765054), 100 U/mL penicillin-streptomycin (Invitrogen, cat. 15140122), and 2.5% Matrigel (Corning Inc., cat. 354248) for the first three passages. The 857933-349-R-J2-PDC line was cultured in 6C/Colon 1B media, which includes advanced DMEM/F-12 (Thermo Fisher Scientific, cat. 12634028), 10 mM HEPES (Thermo Fisher Scientific, cat. 15630080), 1X GlutaMAX supplement (Thermo Fisher Scientific, cat. 35050061), 0.1 mg/mL primocin (InvivoGen, cat. ant-pm-2), 10% defined fetal bovine serum, heat inactivated (HyClone Laboratories Inc., cat. SH30070.03HI), 50% L-WRN conditioned media (ATCC, cat. CRL-3276), 1.25 mM N-Acetyl-L-cysteine (Sigma-Aldrich, cat. A9165), 10 mM nicotinamide (Sigma-Aldrich, cat. N0636), 1X B-27 supplement (Thermo Fisher Scientific, cat. 17504044), 1X N-2 supplement (Thermo Fisher Scientific, cat. 17502048), 10 microM Y-27632 dihydrochloride (Tocris Bioscience, cat. 1254), and 50 ng/mL human EGF recombinant protein (Thermo Fisher Scientific, cat. PHG0311). The 485176-168-R4-J1-PDC line was cultured in Panc media, which includes all 6C/Colon 1B media components plus 100 ng/mL human FGF-10 (Thermo Fisher Scientific, cat. 100-26), 500 nM SB-431542 (Selleckchem, cat. S1067), and gastrin (Tocris, cat. 3006).
[…]

[1] = second compound 0.0316 µM, first compound 0.0316 µM
[2] = second compound 0.0316 µM, first compound 0.316 µM
[3] = second compound 0.1 µM, first compound 0.0316 µM
[4] = second compound 0.1 µM, first compound 0.316 µM
[5] = second compound 0.316 µM, first compound 0.0316 µM
[6] = second compound 0.316 µM, first compound 0.316 µM
[7] = second compound 1 µM, first compound 0.0316 µM
[8] = second compound 1 µM, first compound 0.316 µM
[9] = second compound 3.16 µM, first compound 0.0316 µM
[10] = second compound 3.16 µM, first compound 0.316 µM
[11] = second compound 10 µM, first compound 0.0316 µM
[12] = second compound 10 µM, first compound 0.316 µM
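Also: spheroids exposed to drugs for 7 days before viability reading.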

SMILES: C=CC(=O)N1CCN(c2nc(=O)n(-c3c(C)ccnc3C(C)C)c3nc(-c4c(O)cccc4F)c(F)cc23)C(C)C1 (centres undefined) + CN(C)c1ccc(Nc2c3ccc(NC(=O)CCN4CCCC4)cc3nc3cc(NC(=O)CCN4CCCC4)ccc23)cc1
- IC50 (second compound 0.0316 µM): > 10000 nM
- IC50 (second compound 0.1 µM): > 10000 nM
- IC50 (second compound 0.316 µM): > 10000 nM
- IC50 (second compound 1 µM): > 10000 nM
- IC50 (second compound 3.16 µM): > 10000 nM
- IC50 (second compound 10 µM): > 10000 nM
- viability, T/C [1]: 114%
- viability, T/C (second compound 0.0316 µM, first compound 0.1 µM): 94.2%
- viability, T/C [2]: 112%
- viability, T/C (second compound 0.0316 µM, first compound 1 µM): 101%
- viability, T/C (second compound 0.0316 µM, first compound 3.16 µM): 98.2%
- viability, T/C (second compound 0.0316 µM, first compound 10 µM): 69.6%
- viability, T/C [3]: 110%
- viability, T/C (second compound 0.1 µM, first compound 0.1 µM): 102%
- viability, T/C [4]: 96.9%
- viability, T/C (second compound 0.1 µM, first compound 1 µM): 105%
- viability, T/C (second compound 0.1 µM, first compound 3.16 µM): 103%
- viability, T/C (second compound 0.1 µM, first compound 10 µM): 69.2%
- viability, T/C [5]: 110%
- viability, T/C (second compound 0.316 µM, first compound 0.1 µM): 99.5%
- viability, T/C [6]: 98.8%
- viability, T/C (second compound 0.316 µM, first compound 1 µM): 97.3%
- viability, T/C (second compound 0.316 µM, first compound 3.16 µM): 96.9%
- viability, T/C (second compound 0.316 µM, first compound 10 µM): 77.9%
- viability, T/C [7]: 96.2%
- viability, T/C (second compound 1 µM, first compound 0.1 µM): 108%
- viability, T/C [8]: 103%
- viability, T/C (second compound 1 µM, first compound 1 µM): 103%
- viability, T/C (second compound 1 µM, first compound 3.16 µM): 93.7%
- viability, T/C (second compound 1 µM, first compound 10 µM): 83.6%
- viability, T/C [9]: 86.6%
- viability, T/C (second compound 3.16 µM, first compound 0.1 µM): 103%
- viability, T/C [10]: 94.2%
- viability, T/C (second compound 3.16 µM, first compound 1 µM): 92.1%
- viability, T/C (second compound 3.16 µM, first compound 3.16 µM): 111%
- viability, T/C (second compound 3.16 µM, first compound 10 µM): 67.6%
- viability, T/C [11]: 71.3%
- viability, T/C (second compound 10 µM, first compound 0.1 µM): 70.3%
- viability, T/C [12]: 77.2%
- viability, T/C (second compound 10 µM, first compound 1 µM): 75.6%
- viability, T/C (second compound 10 µM, first compound 3.16 µM): 76.3%
- viability, T/C (second compound 10 µM, first compound 10 µM): 58.3%

SMILES: CCc1c2c(nc3ccc(O)cc13)-c1cc3c(c(=O)n1C2)COC(=O)[C@]3(O)CC + CN(C)c1ccc(Nc2c3ccc(NC(=O)CCN4CCCC4)cc3nc3cc(NC(=O)CCN4CCCC4)ccc23)cc1
- IC50 (second compound 0.0316 µM): 5.08 nM
- IC50 (second compound 0.1 µM): 4.06 nM
- IC50 (second compound 0.316 µM): 3.51 nM
- IC50 (second compound 1 µM): 7.44 nM
- IC50 (second compound 3.16 µM): 5.64 nM
- IC50 (second compound 10 µM): 3.75 nM
- viability, T/C (second compound 0.0316 µM, first compound 0.000999 µM): 66.2%
- viability, T/C (second compound 0.0316 µM, first compound 0.00316 µM): 54.6%
- viability, T/C (second compound 0.0316 µM, first compound 0.00999 µM): 43.2%
- viability, T/C [1]: 28.7%
- viability, T/C (second compound 0.0316 µM, first compound 0.0999 µM): 16.5%
- viability, T/C [2]: 7.38%
- viability, T/C (second compound 0.1 µM, first compound 0.000999 µM): 60.4%
- viability, T/C (second compound 0.1 µM, first compound 0.00316 µM): 51.8%
- viability, T/C (second compound 0.1 µM, first compound 0.00999 µM): 41.3%
- viability, T/C [3]: 28.5%
- viability, T/C (second compound 0.1 µM, first compound 0.0999 µM): 15.6%
- viability, T/C [4]: 9.53%
- viability, T/C (second compound 0.316 µM, first compound 0.000999 µM): 61.8%
- viability, T/C (second compound 0.316 µM, first compound 0.00316 µM): 50.7%
- viability, T/C (second compound 0.316 µM, first compound 0.00999 µM): 39.1%
- viability, T/C [5]: 28.9%
- viability, T/C (second compound 0.316 µM, first compound 0.0999 µM): 15.4%
- viability, T/C [6]: 8.17%
- viability, T/C (second compound 1 µM, first compound 0.000999 µM): 61.1%
- viability, T/C (second compound 1 µM, first compound 0.00316 µM): 57%
- viability, T/C (second compound 1 µM, first compound 0.00999 µM): 47.5%
- viability, T/C [7]: 32.3%
- viability, T/C (second compound 1 µM, first compound 0.0999 µM): 16.7%
- viability, T/C [8]: 7.43%
- viability, T/C (second compound 3.16 µM, first compound 0.000999 µM): 58.6%
- viability, T/C (second compound 3.16 µM, first compound 0.00316 µM): 54.7%
- viability, T/C (second compound 3.16 µM, first compound 0.00999 µM): 46.6%
- viability, T/C [9]: 31.1%
- viability, T/C (second compound 3.16 µM, first compound 0.0999 µM): 21.4%
- viability, T/C [10]: 9.32%
- viability, T/C (second compound 10 µM, first compound 0.000999 µM): 52.9%
- viability, T/C (second compound 10 µM, first compound 0.00316 µM): 52.7%
- viability, T/C (second compound 10 µM, first compound 0.00999 µM): 44%
- viability, T/C [11]: 32.6%
- viability, T/C (second compound 10 µM, first compound 0.0999 µM): 20.9%
- viability, T/C [12]: 9.92%
